Results published in ChEMBL document CHEMBL3881524, “Use of benzothiazepines having activity as inhibitors of ileal bile acid transport for reducing cholesterololemia” (2005).

Legend:
Assay type in all cases: functional
Mus musculus [1] = experiment: Reduction in plasma cholesterol in LP-remnants plus LDL/HDL ratio level in LDL receptor/ApoE deficient mouse at 10 umol/kg/day dosed via gavage route and co-administered with 80 to 100 mg/kg/day mixed with R3 chow diet for 7 days relative to untreated control; parameters: scale not given: the % may be the effect or the level left
Mus musculus [2] = experiment: Reduction in plasma total cholesterol level in LDL receptor/ApoE deficient mouse at 10 umol/kg/day dosed via gavage route once daily in afternoon for first three days and in morning the last day by FPLC method relative to untreated control; parameters: scale not given: the % may be the effect or the level left
Mus musculus [3] = experiment: Effect on plasma triglyceride level in LDL receptor/ApoE deficient mouse at 10 umol/kg/day dosed via gavage route once daily in afternoon for first three days and in morning the last day relative to untreated control
Mus musculus [4] = experiment: Effect on plasma HDL level in LDL receptor/ApoE deficient mouse at 10 umol/kg/day dosed via gavage route and co-administered with 80 to 100 mg/kg/day mixed with R3 chow diet for 7 days relative to untreated control
Mus musculus [5] = experiment: Reduction in plasma cholesterol in LP-remnants in LDL receptor/ApoE deficient mouse at 10 umol/kg/day dosed via gavage route once daily in afternoon for first three days and in morning the last day by FPLC method relative to untreated control; parameters: scale not given: the % may be the effect or the level left
Mus musculus [6] = experiment: Reduction in plasma LDL level in LDL receptor/ApoE deficient mouse at […] dosed via gavage route once daily in afternoon for first three days and in morning the last day by FPLC method relative to untreated control; parameters: scale not given: the % may be the effect or the level left
Mus musculus [7] = experiment: Reduction in plasma cholesterol in LP-remnants plus LDL/HDL ratio level in LDL receptor/ApoE deficient mouse at 10 umol/kg/day dosed via gavage route once daily in afternoon for first three days and in morning the last day by FPLC method relative to untreated control; parameters: scale not given: the % may be the effect or the level left
Mus musculus [8] = experiment: Reduction in plasma total cholesterol level in LDL receptor/ApoE deficient mouse at 0.625 umol/kg/day dosed via gavage route once daily in afternoon for first three days and in morning the last day by FPLC method relative to untreated control; parameters: scale not given: the % may be the effect or the level left
Mus musculus [9] = experiment: Effect on plasma HDL level in LDL receptor/ApoE deficient mouse at 10 umol/kg/day dosed via gavage route once daily in afternoon for first three days and in morning the last day by FPLC method relative to untreated control
Mus musculus [10] = experiment: Reduction in plasma total cholesterol level in LDL receptor/ApoE deficient mouse at […] dosed via gavage route once daily in afternoon for first three days and in morning the last day by FPLC method relative to untreated control; parameters: scale not given: the % may be the effect or the level left
Mus musculus [11] = experiment: Reduction in plasma total cholesterol level in LDL receptor/ApoE deficient mouse at 10 umol/kg/day dosed via gavage route and co-administered with 80 to 100 mg/kg/day mixed with R3 chow diet for 7 days relative to untreated control; parameters: scale not given: the % may be the effect or the level left
Mus musculus [12] = experiment: Effect on plasma triglyceride level in LDL receptor/ApoE deficient mouse at 10 umol/kg/day dosed via gavage route and co-administered with 80 to 100 mg/kg/day mixed with R3 chow diet for 7 days relative to untreated control
Mus musculus [13] = experiment: Reduction in plasma LDL level in LDL receptor/ApoE deficient mouse at 10 umol/kg/day dosed via gavage route and co-administered with 80 to 100 mg/kg/day mixed with R3 chow diet for 7 days relative to untreated control; parameters: scale not given: the % may be the effect or the level left
Mus musculus [14] = experiment: Reduction in plasma LDL level in LDL receptor/ApoE deficient mouse at 10 umol/kg/day dosed via gavage route once daily in afternoon for first three days and in morning the last day by FPLC method relative to untreated control; parameters: scale not given: the % may be the effect or the level left
Mus musculus [15] = experiment: Reduction in plasma cholesterol in LP-remnants in LDL receptor/ApoE deficient mouse at 10 umol/kg/day dosed via gavage route and co-administered with 80 to 100 mg/kg/day mixed with R3 chow diet for 7 days relative to untreated control; parameters: scale not given: the % may be the effect or the level left
Mus musculus [16] = experiment: Effect on plasma HDL level in LDL receptor/ApoE deficient mouse at 80 to 100 mg/kg/day mixed with R3 chow diet by FPLC method relative to untreated control
Mus musculus [17] = experiment: Reduction in plasma LDL level in LDL receptor/ApoE deficient mouse at 80 to 100 mg/kg/day mixed with R3 chow diet by FPLC method relative to untreated control; parameters: scale not given: the % may be the effect or the level left

Structure (SMILES)	Activity (Mus musculus [1]) [%]	Activity (Mus musculus [2])	Activity (Mus musculus [3])	Activity (Mus musculus [4]) [%]	Activity (Mus musculus [5])	Activity (Mus musculus [6]) [%]	Activity (Mus musculus [7])	Activity (Mus musculus [8]) [%]	Activity (Mus musculus [9])	Activity (Mus musculus [10]) [%]	Activity (Mus musculus [11]) [%]	Activity (Mus musculus [12]) [%]	Activity (Mus musculus [13]) [%]	Activity (Mus musculus [14])	Activity (Mus musculus [15]) [%]	Activity (Mus musculus [16]) [%]	Activity (Mus musculus [17]) [%]
CCCC[C@]1(CC)CS(=O)(=O)c2cc(O[C@@H]3O[C@H](C(=O)O)[C@@H](O)[C@H](O)[C@H]3O)ccc2[C@@H](c2ccccc2)N1	71	35 - 42%	7 - 23%	15	54 - 62%	14	54 - 55%	9	22 - 36%	28	64	43	64	20 - 29%	69		
CC(C)c1c(C(=O)Nc2ccccc2)c(-c2ccccc2)c(-c2ccc(F)cc2)n1CC[C@@H](O)C[C@@H](O)CC(=O)[O-].CC(C)c1c(C(=O)Nc2ccccc2)c(-c2ccccc2)c(-c2ccc(F)cc2)n1CC[C@@H](O)C[C@@H](O)CC(=O)[O-].[Ca+2] [ATORVASTATIN CALCIUM]																22	43
